Reference: publication PMC10145367, “Acute and Transgenerational Effects of Non-Steroidal Anti-Inflammatory Drugs on Daphnia magna” (Toxics, 2023)
Converted amounts (≈) assume the structure as drawn. Where two headings read alike, the source gives them in different places.

What was measured:
[1] = system: acid phosphatase (ACP); set-up: method as in PMID 36835510; conditions: chronic exposure of daphnids; ref [30]; cited from earlier work
[2] = system: alkaline phosphatase (ALP); set-up: method as in PMID 36835510; conditions: chronic exposure of daphnids; ref [30]; cited from earlier work
[3] = system: Daphnia magna; conditions: cited from earlier work
[4] = system: peptidase (PEP); conditions: cited from earlier work
[5] = system: glutathione-S-transferase (GST)
Description: (§1) Chronic exposure was performed at 1 mg/L of each NSAID and their 1:1 mixture separately, which was selected as a non-lethal concentration. For enzyme activities in chronic and transgenerational exposures, neonates were cultured for two consecutive generations and following a 21-day recovery period (Figure 1B). […] Media and NSAIDs were renewed twice a week. Although the concentration of NSAIDs was not measured throughout the exposure, their renewal twice a week was sufficient to exert their action. […] Daphnids were fed daily with 2 mL fresh algae (C. reinhardtii) with a concentration of 6 million cells/mL, and a seaweed extract (Ascophylum nodosum) was supplemented only on the days of media change.
(§2) Five 7, 14, and 21-day-old animals were used per biological replicate and homogenized in 0.5 mL ddH2O using a pestle homogenizer. The homogenate was cleared by centrifugation (12,000× g for 5 min at 5 °C), and the clear supernatant was collected and used to assess the enzyme activity as described elsewhere. 200 μL appropriately diluted sample in buffer was assessed for the activity of phosphatases (in 100 mM acetic acid pH 4.5 for acid phosphatase or 100 mM boric acid pH 9.8 for alkaline phosphatase) using 50 μL of the substrate p-nitrophenyl phosphate (8 mM) and monitoring the production of p-nitrophenol at 405 nm after its alkalinization (with 50 μL 4M NaOH). In addition, the activities of β-galactosidase and lipase were measured with the same experimental conditions by the generation of nitrophenol from the catalysis of o-nitrophenyl-β-galactoside or p-nitrophenyl butyrate, respectively, but in phosphate buffer pH 7.2. Glutathione-S-transferase (GST) activity was assessed by the reaction of reduced glutathione with 1-chloro-2,4-dinitrobenzene. 200 μL appropriately diluted sample in phosphate buffer pH 7.2 was mixed with 50 μL 2 mM CDNB, and 6 mM reduced glutathione, and the formation of the complex was measured continuously at 340 nm and converted to units of activity with the extinction coefficient. Protein was quantified by an ultrasensitive Bradford protocol to normalize the results.

[6] = system: β-galactosidase (β-gal)
Description: as §1, §2

[7] = system: alkaline phosphatase (ALP)
Description: as §1, §2

[8] = system: Daphnia magna; experiment: Feeding assay (ingestion of fluorescent microparticles); type: in vivo; conditions: neonates, 1 mg/L for 24 h
Description: After 24 h, twenty […] transferred in a 12-well plate with 6 mL OECD containing the carboxylate-modified polystyrene, fluorescent red microparticles (2.0 μm mean particle size) at a concentration of 13 mg/L. The animals were exposed to the microplastic for up to 90 min, and media was collected every 15 min to estimate the removed microparticles by fluorescence at Ex 560 Em 590 nm using a TECAN plate reader. The concentration of microparticles in the media was optimized to ensure an excess of microparticles for the accurate quantification of ingestion. Furthermore, we have extensively tested these particles, which show no toxicity to the […] for the short exposure periods used. We performed control experiments with neonates, as they would be more sensitive, for even up to 10 h to microplastics at even higher concentrations (up to 52 mg/L), and all animals from all experiments following the feeding assay were alive and healthy. Fluorescence was expressed to the amount of ingested microparticles using a standard curve. To confirm the ingestion of microparticles in the gut of […], animals were imaged with a stereoscope and fluorescence microscopy using the TRITC filter for carboxyl functionalized particles. […] The animals were fed daily with 2 mL of fresh algae (Chlamydomonas reinhardtii) with a concentration of 6 million cells/mL. […]

[9] = cited from earlier work
[10] = system: GST; conditions: 28-day exposure to 25 mg/L; ref [53]; cited from earlier work
[11] = system: lipase (LIP); experiment: Lipase activity in daphnid homogenate after chronic/transgenerational exposure; type: in vivo, Daphnia magna
[12] = system: GST; set-up: method as in PMID 32259738; conditions: exposure for 14 days; ref [71]; cited from earlier work
[13] = system: D. magna; conditions: ref [21], cited from earlier work
[14] = system: peptidase (PEP); experiment: Peptidase activity in daphnid homogenate after chronic/transgenerational exposure; type: in vivo, Daphnia magna
[15] = system: Daphnia magna; experiment: Acute toxicity (immobilization) of neonates, 24 h toxicity curves; conditions: for EC50: Daphnia magna, 24 h; for EC1 / EC5 / EC10 / EC20: neonates, 24 h exposure, immobilization
[16] = system: acid phosphatase (ACP); experiment: Acid phosphatase activity in daphnid homogenate after chronic/transgenerational exposure; type: in vivo, Daphnia magna
[17] = system: patients; set-up: method as in PMID 26865183; conditions: patients receiving it; ref [11]; cited from earlier work
[18] = system: Thamnocephalus platyurus; conditions: after 24 h of exposure; ref [3],[5]; cited from earlier work
[19] = system: D. magna; set-up: method as in PMID 27234514, PMID 19336980; conditions: after 24 h of exposure; ref [3],[5]; cited from earlier work
[20] = system: male zebrafish (Danio rerio); set-up: method as in PMID 29027214; conditions: 96 h, ref [13]; cited from earlier work
[21] = system: Oryzias latipes; set-up: method as in PMID 27234514, PMID 19336980; conditions: after 24 h of exposure; ref [3],[5]; cited from earlier work
[22] = system: glutathione-S-transferase (GST); set-up: method as in PMID 32806449; conditions: intermediate concentrations (1.2 and 6 μg/L); ref [67]; cited from earlier work
[23] = 1 mg/L, age 7 days, first generation
[24] = 1 mg/L, age 14 days, first generation
[25] = 1 mg/L, age 21 days, 2nd generation
[26] = 1 mg/L, age 21 days, first generation
[27] = age 21 days, 3rd generation recovery in clean OECD media after two generations at 1 mg/L

In the case of `O=C(O)Cc1ccccc1Nc1c(Cl)cccc1Cl` [Diclofenac], the “effect on activity of ACP” value [1] is listed as “reduced”, the “effect on activity of ALP” value [2] is listed as “reduced” and the “effect on feeding rate” value ([3]; neonates of D. magna, ref [67],[68]) is listed as “reduce the feeding rate”. For the same molecule, the “effect on activity of PEP” value ([4]; chronic exposure of daphnids, ref [30]) was “increasing”.

`CC(C)Cc1ccc(C(C)C(=O)O)cc1` (stereo not drawn) [Ibuprofen] gave a GST enzyme activity [5, 23] of 95.6 ± 10 munits/mg protein, a GST enzyme activity [5, 24] of 151.7 ± 11.7 munits/mg protein and a GST enzyme activity [5, 25] of 123.5 ± 2.1 munits/mg protein. The “change of GST activity compared with DMSO” value [5, 25] was “+18%”, the GST enzyme activity [5, 26] was 67.6 ± 4.4 munits/mg protein and the “change of β-gal activity compared with DMSO” value (“change of β-gal activity” below) [6, 23] was −17%. The β-gal enzyme activity [6, 23] was 1.26 ± 0.06 units/mg protein, the β-gal enzyme activity [6, 24] was 2.08 ± 0.75 units/mg protein and the “change of β-gal activity” value [6, 25] was −17%. For the same molecule, the β-gal enzyme activity [6, 25] was 3.93 ± 0.22 units/mg protein, the β-gal enzyme activity [6, 26] was 5.13 ± 0.25 units/mg protein and the ALP enzyme activity [7, 23] was 6.55 ± 0.26 units/mg protein. The ALP enzyme activity [7, 24] was 2.63 ± 0.14 units/mg protein, the ALP enzyme activity [7, 25] was 3.27 ± 0.15 units/mg protein and the “change of ALP activity compared with DMSO” value [7, 25] was −10%. The “reduction of feeding rate compared to DMSO” value [8] was 30%, the average strength maintained ([9]; for 5 months, ref [39]) was > 90% and the time stable ([9]; room temperature, ref [37],[38]) was 15 days. For the same molecule, the “effect on activity of GST” value [10] was “increase in the activity of GST”, the LIP enzyme activity [11, 23] was 123.76 ± 2.26 units/mg protein and the “change of LIP activity compared with DMSO” value (from here on “change of LIP activity”) [11, 23] was −10%. For the same molecule, the LIP enzyme activity [11, 24] was 148.12 ± 37.62 units/mg protein, the LIP enzyme activity [11, 25] was 47.53 ± 1.66 units/mg protein and the “change of LIP activity” value [11, 25] was −28%. For the same molecule, the LIP enzyme activity [11, 26] was 78.43 ± 4.27 units/mg protein, the LIP enzyme activity [11, 27] was 53.32 ± 6.51 units/mg protein and the “effect on activity of GST” value [12] was “reduced the activity of GST”. The survival ([13]; neonates exposed to 20 mg/L and 40 mg/L for 14 days) was “unaffected”, the reduction of survival ([13]; neonates exposed to 80 mg/L for 14 days) was 19% and the PEP enzyme activity [14, 23] was 29.54 ± 7.34 units/mg protein. The PEP enzyme activity [14, 24] was 1.93 ± 0.27 units/mg protein, the PEP enzyme activity [14, 26] was 10.52 ± 1.39 units/mg protein and the PEP enzyme activity [14, 27] was 4.61 ± 0.35 units/mg protein. For the same molecule, the EC50 [15] was 17.8 µg/mL (≈ 86.3 µM), the EC1 [15] was 8.62 mg/L and the EC5 [15] was 11.19 mg/L. It also gave an EC10 [15] of 12.59 µg/mL (≈ 61 µM), an EC20 [15] of 14.3 µg/mL (≈ 69.3 µM) and an ACP enzyme activity [16, 23] of 8.14 ± 0.33 units/mg protein. The ACP enzyme activity [16, 25] was 2.78 ± 0.21 units/mg protein, the ACP enzyme activity [16, 26] was 3.09 ± 0.04 units/mg protein and the ACP enzyme activity [16, 27] was 3.24 ± 0.47 units/mg protein.

`COc1ccc2c(c1)c(CC(=O)O)c(C)n2C(=O)c1ccc(Cl)cc1` [Indomethacin] gave a GST enzyme activity [5, 23] of 107.9 ± 11.6 munits/mg protein, a GST enzyme activity [5, 24] of 144.7 ± 5.4 munits/mg protein and a GST enzyme activity [5, 25] of 94.6 ± 2.9 munits/mg protein. For the same molecule, the “change of GST activity compared with DMSO” value [5, 25] was −9%, the GST enzyme activity [5, 26] was 52.3 ± 1.5 munits/mg protein and the GST enzyme activity [5, 27] was 154.7 ± 4.2 munits/mg protein. For the same molecule, the “change of β-gal activity” value [6, 23] was −40%, the β-gal enzyme activity [6, 23] was 0.91 ± 0.14 units/mg protein and the β-gal enzyme activity [6, 24] was 2.23 ± 0.39 units/mg protein. For the same molecule, the β-gal enzyme activity [6, 25] was 4.7 ± 0.23 units/mg protein, the “change of β-gal activity” value [6, 26] was “+11%” and the β-gal enzyme activity [6, 26] was 5.93 ± 0.19 units/mg protein. The β-gal enzyme activity [6, 27] was 5.03 ± 0.44 units/mg protein, the ALP enzyme activity [7, 23] was 6.22 ± 0.21 units/mg protein and the “change of ALP activity compared with DMSO” value [7, 23] was −13%. For the same molecule, the ALP enzyme activity [7, 24] was 3.05 ± 0.29 units/mg protein, the ALP enzyme activity [7, 25] was 3.8 ± 0.18 units/mg protein and the ALP enzyme activity [7, 26] was 5.05 ± 0.17 units/mg protein. For the same molecule, the ALP enzyme activity [7, 27] was 4.16 ± 0.24 units/mg protein, the “patients with adverse effects” value [17] was 30–60% and the lethal concentration [18] was 16.14 mg/L. For the same molecule, the lethal concentration [19] was 22.38 mg/L, the “reduction of feeding rate compared to DMSO” value [8] was 35% and the EC50 [20] was 76.30 µg/mL (≈ 213 µM). For the same molecule, the lethal concentration [21] was 81.92 mg/L, the LIP enzyme activity [11, 23] was 72.94 ± 11.09 units/mg protein and the “change of LIP activity” value [11, 23] was −47%. For the same molecule, the LIP enzyme activity [11, 24] was 193.84 ± 25.81 units/mg protein, the LIP enzyme activity [11, 25] was 56.41 ± 3.09 units/mg protein and the “change of LIP activity” value [11, 25] was −15%. For the same molecule, the LIP enzyme activity [11, 26] was 90.86 ± 0.42 units/mg protein, the LIP enzyme activity [11, 27] was 51.19 ± 2.04 units/mg protein and the PEP enzyme activity [14, 23] was 27.26 ± 5.01 units/mg protein. For the same molecule, the PEP enzyme activity [14, 24] was 1.94 ± 0.06 units/mg protein, the PEP enzyme activity [14, 25] was 6.81 ± 0.26 units/mg protein and the “change of PEP activity compared with DMSO” value [14, 25] was −14%. For the same molecule, the PEP enzyme activity [14, 26] was 10.82 ± 0.6 units/mg protein, the “change of PEP activity compared with DMSO” value [14, 26] was “+16%” and the PEP enzyme activity [14, 27] was 5.33 ± 0.49 units/mg protein. For the same molecule, the EC50 [15] was 17.5 µg/mL (≈ 48.8 µM), the EC1 [15] was 6.61 mg/L and the EC5 [15] was 9.37 mg/L. It also gave an EC10 [15] of 10.97 µg/mL (≈ 30.7 µM), an EC20 [15] of 13.02 µg/mL (≈ 36.4 µM) and an ACP enzyme activity [16, 23] of 6.82 ± 0.51 units/mg protein. It also gave an ACP enzyme activity [16, 24] of 6.02 ± 0.71 units/mg protein, an ACP enzyme activity [16, 25] of 2.67 ± 0.15 units/mg protein and an ACP enzyme activity [16, 26] of 2.84 ± 0.13 units/mg protein. The “change of ACP activity compared with DMSO” value [16, 26] was −10% and the ACP enzyme activity [16, 27] was 3.21 ± 0.28 units/mg protein.

In the case of `CC(=O)Oc1ccccc1C(=O)O` [acetylsalicylic acid], the “effect on activity of PEP” value ([4]; acute exposure of daphnids, ref [28]) is given as “decreased”.

For `CC(C(=O)O)c1cccc(C(=O)c2ccccc2)c1` (stereo not drawn) [ketoprofen], the “effect on activity of GST” value [22] is listed as “increased the activity of GST” and the effect on feeding ([3]; D5 daphnids, ref [67]) is listed as “did not affect the feeding”.
